Assay results as given in patent US20080200405A1, “Drug Resistance Reversal In Neoplastic Disease” (priority 2007, published 2008).
Where two headings read alike, the source gives them in different places.

Assays:
[1] = test system: TNFα; experiment: Measurement of LPS Induced-TNFα in THP-1 Cells; type: cell-based, human
Protocol: The lipid peroxidation assay method of Ohkawa, H.; Ohishi, N.; Yaki, K. Anal. Biochem. 1979, 95, 351 was used to evaluate […]. […] […] Cells were collected and spun at 1500 g for 10 minutes. Supernatant was collected and analyzed for TNFα.
Mean Percent Inhibition of TNF-alpha by compounds of the present invention is set forth in Table B. TNF-alpha inhibition data is set forth in Table B-1. OT-551 was used in both native form and in the form of nanoparticles. […] Other nitrogenous heterocyclic species of the invention are expected to show similar improvement in efficacy when disposed in nanoparticulate form.

[2] = test system: Lipid peroxidation; experiment: Lipid peroxidation inhibition (method of Ohkawa); type: biochemical; settings: for Lipid Peroxidation Inhibition, % Inhibition: 10 uM
[3] = test system: bFGF-induced angiogenesis in the CAM model; experiment: bFGF (FGF2)-stimulated CAM model; type: in vivo, chicken; settings: bFGF/FGF2 1 ug, 30 ug injected; for inhibition in vivo at 0.03 mg: Gallus gallus, read-out: % Inhibition ± SEM
Protocol: In vivo neovascularization was examined by the method previously described by Auerbach et al. (J. Dev. Biol. 41:391-394 (1974)). Ten-day old chicken embryos were purchased from Spafas, Inc. (Preston, Conn.) and were incubated at 37° C. with 55% relative humidity. In the dark, with the aid of a candling lamp, a small hole was punctured in the shell concealing the air sac with a hypodermic needle. A second hole was punctured in the shell on the broadside of the egg directly over an […] portion of the embryonic membrane, as observed during candling. An artificial air sac was created beneath the second hole by applying gentle vacuum to the first hole using a small rubber squeeze bulb. The vacuum caused the chorioallantoic membrane (CAM) to separate from the shell.
For inducing angiogenesis, sterile filter disks were saturated with bFGF (1 μg/ml) (Life Technologies, Gaithersburg, Md.) or other pro-angiogenesis factors and control disks were saturated with PBS without Calcium and Magnesium. Control disks were saturated with PBS without Calcium and Magnesium.
After 24-48 hr, 10-25 ul of test agent was injected intravenously or added topically into the CAM membrane. Eight-Ten eggs/treatment group were used.
The number of vessel branch points contained in a circular region equal to the area of a filter disk was counted for each section. Percent inhibition data are expressed as the quotient of the experimental value minus the negative control value divided by the difference between the positive control value and the negative control value. One image was counted in each CAM preparation, and findings from eight CAM preparations were analyzed for each treatment condition. In addition, each experiment was performed three times. The resulting angiogenesis index is the mean ±SEM (Standard Error of Measurement) of new branch points in each set of treatment. Statistical analysis of blood vessel branching patterns are performed by 1-way analysis of variance (ANOVA) comparing experimental with corresponding control groups. Statistical significance differences are assessed at P value of <0.05.
The CAM model protocol was modified to include stimulus with bFGF. The effect of injected OT 551 was assayed.
TP-H was applied to the CAM model study to determine its respective anti-angiogenesis effects according to the materials and methods provided in Example 1. Basic Fibroblast Growth Factor (bFGF) was used to induce angiogenesis in the CAM model.
Compounds were introduced via injection to the CAM model study to determine its respective anti-angiogenesis effects according to the materials and methods provided in Example 1. bFGF was used to induce angiogenesis in the CAM model.

[4] = test system: Doxorubicin resistant SaOS2 cells; experiment: Cancer cell viability (MTT) in the presence or absence of doxorubicin; type: cell-based, human; settings: compound 50 ug/mL, 3 days
[5] = test system: Angiogenesis in CAM; experiment: Neovascularization on the CAM (Inhibition of Angiogenesis in CAM); type: in vivo, chicken; settings: for inhibition in vivo at 0.03 mg: Gallus gallus; for inhibition in vivo at 0.03 mg / % inhibition of angiogenesis in CAM at 30 ug: 30 ug; for Inhibition of Angiogenesis in CAM, % Inhibition: 300 ug
Protocol: In vivo neovascularization was examined by the method previously described by Auerbach et al. (J. Dev. Biol. 41:391-394 (1974)). Ten-day old chicken embryos were purchased from Spafas, Inc. (Preston, Conn.) and were incubated at 37° C. with 55% relative humidity. In the dark, with the aid of a candling lamp, a small hole was punctured in the shell concealing the air sac with a hypodermic needle. A second hole was punctured in the shell on the broadside of the egg directly over an […] portion of the embryonic membrane, as observed during candling. An artificial air sac was created beneath the second hole by applying gentle vacuum to the first hole using a small rubber squeeze bulb. The vacuum caused the chorioallantoic membrane (CAM) to separate from the shell. A window, approximately 1.0 cm^2, was cut in the shell over the dropped CAM with the use of a small crafts grinding wheel (Dremel, Division of Emerson Electric Company Racine, Wis.). The window allowed direct access to the underlying CAM. A pro-angiogenic agent was added to induce new blood vessel branches on the CAM of 10-day old embryos. […] Louis, Mo.) in a solution (95% ethanol and water). The disks were subsequently air dried under sterile conditions. The disks were then suspended in PBS (Phosphate Buffered Saline) and placed on growing CAMs. […] For inducing angiogenesis, sterile filter disks were saturated with bFGF (1 μg/ml) (Life Technologies, Gaithersburg, Md.) or other pro-angiogenesis factors and control disks were saturated with PBS without Calcium and Magnesium. Control disks were saturated with PBS without Calcium and Magnesium. Using sterile forceps one filter/CAM was placed from the window. The window was sealed with Highland brand transparent tape. After 24-48 hr, 10-25 ul of test agent was injected intravenously or added topically into the CAM membrane. Eight-Ten eggs/treatment group were used. CAM tissue directly beneath filter disk was harvested from embryos treated 48 hours prior with compound or control. Tissues were washed three times with PBS. Sections were placed in a 35-mm petri dish (Nalge Nunc, Rochester, N.Y.) and examined under a SV6 stereomicroscope (Karl Zeiss, Thornwood, N.Y.) at 50× magnification. […] Digital images of CAM sections from Petri dish were collected using a 3-CCD color video camera system (Toshiba America, New York, N.Y.). These images were analyzed using Image-Pro Plus software (Media Cybernetics, Silver Spring, Md.). The number of branch points in blood vessels within the circular region superimposed to the area of a filter disk was counted for each section. […] Tissues were washed three times with PBS. Sections were placed in a 35-mm Petri dish (Nalge Nunc; Rochester, N.Y.) and were examined under a SV6 stereomicroscope (Karl Zeiss; Thornwood, N.Y.) at 50× magnification. Digital images of CAM sections adjacent to filters were collected using a 3-CCD color video camera system (Toshiba America; New York, N.Y.) and analyzed with the Image-Pro Plus software (Media Cybernetics; Silver Spring, Md.). The number of vessel branch points contained in a circular region equal to the area of a filter disk was counted for each section. Percent inhibition data are expressed as the quotient of the experimental value minus the negative control value divided by the difference between the positive control value and the negative control value. One image was counted in each CAM preparation, and findings from eight CAM preparations were analyzed for each treatment condition. In addition, each experiment was performed three times. The resulting angiogenesis index is the mean ±SEM (Standard Error of Measurement) of new branch points in each set of treatment. Statistical analysis of blood vessel branching patterns are performed by 1-way analysis of variance (ANOVA) comparing experimental with corresponding control groups.

[6] = test system: Human whole blood clot formation
Protocol: TEG: Human whole blood (±drugs) was added to the cylindrical cuvette (“cup”). […] The cup oscillates 4°45′ ( 1/12 radian) in either direction every 4.5 seconds, with a 1-second mid-cycle stationary period, resulting in a frequency of 0.1 Hz and a maximal shear rate of 0.1 per second. The pin was suspended by a torsion wire that acts as a torque transducer. […] The torque experienced by the pin (relative to the oscillation of the cup) was plotted as a function of time (Forsythe, S. A. M. S. K. M. S. (2000): “Comparative In Vitro Efficacy of Different Platelet Glycoprotein IIb/IIIa Antagonists on Platelet-Mediated Clot Strength Induced by Tissue Factor With Use of Thromboelastography.” Arteriosclerosis, Thrombosis, and Vascular Biology 20: 1162).
(Data represent mean ±SD, n=6 (blood form normal healthy volunteers), *P<0.01 as compared to control)

[7] = Homo sapiens, THP-1, compound 10 uM, 5 ng/mL LPS, read-out: Mean Percent Inhibition of TNF-alpha using 5 ng/mL LPS
[8] = Homo sapiens, THP-1, read-out: TNFalpha IC50
[9] = TEG, human whole blood, Bevacizumab 1 ng/cup, Comp. 4 0 uM, *P<0.01 vs control

Row | IC50 [1, 8] [µM] | melting point | Compound | inhibition at 10 µM [1, 7] [%] | Mean OD (×10^−3), MTT viability ([4]; Dox. 10^−6 M (+)) | Mean OD (×10^−3), MTT viability ([4]; absence of Dox. (−)) | inhibition in vivo at 0.03 mg [5] [%] | other results
1 | 20.7 | 158.1 °C (dec.) | CC1(C)CC(NC(=O)N2CCOCC2)CC(C)(C)N1O.Cl [Compound 11, N-(2,2,6,6-tetramethylpiperidin-1-hydroxyl-4-yl)morpholine-4-carboxamide hydrogen chloride] | 24 ± 5 | 267.25 ×10^−3 | 470.25 ×10^−3 | – | Lipid Peroxidation Inhibition, % Inhibition [2]: 82.7%; inhibition in vivo at 0.03 mg [3]: 71 ± 8.8%; Branch pts ± SEM [3]: 64.0 ± 5.1
2 | 21.5 | 186 °C (dec.) | CC1(C)CC(C#N)CC(C)(C)N1O.Cl [Compound 12, 4-cyano-1-hydroxyl-2,2,6,6-tetramethylpiperidine hydrogen chloride] | 35 | 287.25 ×10^−3 | 539.25 ×10^−3 | 92.1 | –
3 | 16.4 | – | CC1(C)CC(Oc2nsnc2Cl)CC(C)(C)N1O [Compound 13, 4-(4-chloro-1,2,5-thiadiazol-3-yloxyl)-1-hydroxyl-2,2,6,6-tetramethylpiperidine hydrogen chloride] | 36 | – | – | 93.4 | –
4 | 21.7 | 201.8 °C (dec.) | CC1(C)CC(Cl)CC(C)(C)N1O.Cl [Compound 21, 4-chloro-1-hydroxy-2,2,6,6-tetramethylpiperidine hydrogen chloride] | – | 99.25 ×10^−3 | 492.75 ×10^−3 | 94.1 | –
5 | ≥ 100 | – | CC1(C)CC(NC(=O)C2CC2)C(C)(C)N1O.Cl (centres unmarked) [Compound 38, N-(1-hydroxy-2,2,5,5-tetramethylpyrrolidin-3-yl)cyclopropanecarboxamide hydrogen chloride] | – | 378.50 ×10^−3 | 1202.75 ×10^−3 | – | % inhibition of angiogenesis in CAM at 30 ug [5]: 62.8

More lines, now with the values behind:

Row | Compound | IC50 [1, 8] [µM] | melting point | inhibition at 10 µM [1, 7] [%] | Mean OD (×10^−3), MTT viability ([4]; Dox. 10^−6 M (+)) | Mean OD (×10^−3), MTT viability ([4]; absence of Dox. (−)) | inhibition in vivo at 0.03 mg [5] [%] | other results
6 | CC(=O)NC1CC(C)(C)N(O)C(C)(C)C1.Cl [Compound 2, 1-hydroxy-4-acetamido-2,2,6,6-tetramethylpiperidine] | 17 | 180.5 °C (dec.) | 64 ± 5 | 249.25 ×10^−3 | 496.33 ×10^−3 | – | Lipid Peroxidation Inhibition, % Inhibition [2]: 81.0%; inhibition in vivo at 0.03 mg [3]: 76.4 ± 9.9%; Branch pts ± SEM [3]: 84.7 ± 11.1
7 | CC1C(O)C(C)C(C)(C)N(O)C1(C)C.Cl (centres unmarked) [Compound 6, 2,2,3,5,6,6-Hexamethyl-piperidine-1,4-diol hydrogen chloride salt] | 29.4 | 191.5 °C (dec.) | 54 ± 6 | 185.25 ×10^−3 | 367.00 ×10^−3 | – | % Lipid Peroxidation inhibition (at 1 uM) ([2]; 1 uM): 70.5%; Lipid Peroxidation Inhibition, % Inhibition [2]: 89.0%; inhibition in vivo at 0.03 mg [3]: 40.4 ± 9.3%; Branch pts ± SEM [3]: 78.6 ± 7.3
8 | CC1(C)CC(Oc2nsnc2OC2CC(C)(C)N(O)C(C)(C)C2)CC(C)(C)N1O [Compound 14, 1-hydroxyl-4-(4-(2,2,6,6-tetramethylpiperidin-1-hydroxyl-4-yloxy)-1,2,5-thiadiazol-3-yloxy)-2,2,6,6-tetramethylpiperidine bis-hydrogen chloride] | – | – | – | – | – | 95.2 | inhibition at 10 µM ([1]; Homo sapiens, THP-1, read-out: Mean Percent Inhibition of TNF-alpha using 5 ng/mL LPS): 63 ± 1%; IC50 ([1]; Homo sapiens, THP-1, read-out: TNFalpha IC50 (uM)): 11.4 µM
9 | CC1(C)C=C(C(N)=O)C(C)(C)N1O [Compound 23, 2,5-dihydro-2,2,5,5-tetramethyl-1H-pyrrole-3-carboxamide-1-hydroxy] | – | – | – | 416.25 ×10^−3 | 1432.50 ×10^−3 | – | IC50 ([1]; read-out: TNFalpha IC50): 87.4 µM; % inhibition of angiogenesis in CAM at 30 ug [5]: 48.8
10 | O=C1O[C@H]([C@@H](O)CO)C(O)=C1O [Vitamin C, reference compound] | – | – | – | – | – | – | Inhibition of Angiogenesis in CAM, % Inhibition [5]: 15 ± 7%
11 | Bevacizumab: a monoclonal antibody against vascular endothelial growth factor used to treat cancer by inhibiting angiogenesis [reference compound] | – | – | – | – | – | – | MA in comparison to native blood [6]: approximately six times larger MA; initiation of clot formation in comparison to native blood [6]: approximately two to three fold faster; Clot Strength - MA [6, 9]: 33.8 ± 5.6* mm; Time to Clot Initiation R [6, 9]: 7.8 ± 1.1* min
12 | Vitamin E [reference compound] | – | – | – | – | – | – | Inhibition of Angiogenesis in CAM, % Inhibition [5]: 22 ± 6%
